pIC50: −log10 of the molar value.
Key:
[1] = target: T1, Human Aryl Hydrocarbon Receptor (AhR) (Homo sapiens, UniProt P35869); experiment: AHR antagonist reporter assay in human cell line (INDIGO AhR Reporter Assay System, kynurenic acid activated); assay type: cell-based; conditions: 200 μM kynurenic acid, 24 hours, luciferase; read-out: AhR Reporter Assay KA Antagonist Mode: IC50
T1 construct: purchased INDIGO Bioscience #1B06001-32; host or cells: AhR Reporter Cell (kit's proprietary reporter cells)
T1 sequence (P35869 11-848): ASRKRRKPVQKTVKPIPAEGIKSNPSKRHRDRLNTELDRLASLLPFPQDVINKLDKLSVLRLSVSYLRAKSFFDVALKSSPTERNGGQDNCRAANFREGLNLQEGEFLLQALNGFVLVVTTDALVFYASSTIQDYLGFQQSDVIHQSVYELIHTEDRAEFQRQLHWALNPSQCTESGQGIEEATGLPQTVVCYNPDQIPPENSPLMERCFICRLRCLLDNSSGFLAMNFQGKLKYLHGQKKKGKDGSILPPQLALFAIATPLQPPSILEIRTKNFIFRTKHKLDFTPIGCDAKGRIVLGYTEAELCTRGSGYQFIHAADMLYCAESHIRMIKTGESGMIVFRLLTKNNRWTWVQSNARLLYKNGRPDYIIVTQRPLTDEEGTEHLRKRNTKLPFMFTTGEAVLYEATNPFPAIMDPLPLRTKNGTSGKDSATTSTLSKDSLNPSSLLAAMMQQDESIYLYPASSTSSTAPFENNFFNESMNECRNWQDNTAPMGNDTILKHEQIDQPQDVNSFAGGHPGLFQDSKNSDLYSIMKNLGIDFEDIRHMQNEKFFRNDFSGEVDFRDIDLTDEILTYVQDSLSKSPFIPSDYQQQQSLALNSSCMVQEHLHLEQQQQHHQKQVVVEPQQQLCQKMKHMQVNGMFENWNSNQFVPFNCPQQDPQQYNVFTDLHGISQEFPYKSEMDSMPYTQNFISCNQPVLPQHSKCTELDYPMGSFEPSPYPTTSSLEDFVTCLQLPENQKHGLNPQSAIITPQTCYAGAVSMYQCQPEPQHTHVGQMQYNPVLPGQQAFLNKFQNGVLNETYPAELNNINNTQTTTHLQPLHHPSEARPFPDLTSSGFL
Procedure, shortened: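 AhR reporter cells activated with 200 μM kynurenic acid and exposed to compound dilution series in duplicate for 24 h. Firefly luciferase readout, normalized to positive (literature antagonists or unactivated cells) and negative controls.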

[2] = system: AHR-regulated gene CYP1A1 in human monocytic U937 cell line; experiment: AHR-regulated CYP1A1 expression in U937 cells (qPCR, kynurenic acid stimulated); assay type: cell-based; conditions: U-937, 200 μM KA, 16 hours, CYP1A1 vs GAPDH, read-out: Cyp ANATAG mode assay: IC50
Procedure: To evaluate the AHR inhibitory activity of the test compounds, quantitative PCR analysis was used to determine expression level of the AHR-regulated gene CYP1A1 in a human monocytic U937 cell line upon stimulation of 200 μM kynurenic acid (KA) in the absence or presence of AHR inhibitor. U937 cells were seeded at a concentration of 5×10^5 cells/well in 200 μL of growth medium in 96-well cell culture microplates. CYP1A1 expression was induced with 200 μM KA (positive control) in the absence or presence of the test compounds for 16 hours. Human U937 cells were typically incubated with eight different concentrations of test compounds (typical dilution: […], 3.2 nM, 16 nM, 80 nM, 400 nM, 2 μM, 10 μM) and analyzed in duplicate on the same cell culture microplate. After stimulation, the media was removed, the cell RNA was isolated using RNeasy Mini Kit (Qiagen, 74104) and reverse-transcribed to cDNA using PrimeScript RT reagent Kit (Perfect Real Time) (TaKaRa, RR037A). Unstimulated cells were used as the negative control. Taqman probes for human CYP1A1 (Hs01054797_g1) and human GAPDH (Hs02786624_g1) were used to analyze fold expression of CYP1A1 of GAPDH.

CT26 tumor cells = experiment: Anti-tumor activity in mice bearing CT26 tumors; assay type: in vivo, BALB/C mouse; conditions: CT26, female BALB/C; compound 10 mg/kg orally 16 days; anti PD-1 10 mg/kg i.p. twice every week; FIG. 1
Procedure: Female BALB/C mouse was inoculated subcutaneously on the right flank with CT26 tumor cells (3×10^5) in 0.1 ml of RPMI 1640 Medium without serum for tumor development. Mice were randomized into 4 groups according to body weight on Day 4 after inoculation. The tumor-bearing mice were treated with Vehicle, anti PD-1 antibody (RMP1-14, BioXCell Catalog No. BP0146), a AHR antagonist compound as disclosed herein and a combination therapy of a AHR antagonist compound as disclosed herein and the anti PD-1 (or established treatment). The AHR antagonist compound was dosed orally at for example 10 mg/kg alone or in combination with established treatment for 16 days. When the established treatment was PD-1 antibody, the antibody was administered via intraperitoneal injection at 10 mg/kg, twice every week.

| SMILES | pIC50 [1] | pIC50 [2] | tumor volume compared with Vehicle group (CT26 tumor cells) |
| --- | --- | --- | --- |
| CNC(=O)[C@H](C)NC(=O)c1cc(-c2ccc(-c3ccc(Cl)cc3)nc2)nn(-c2cnn(C)c2)c1=O [Compound 183] | > 7.00 | > 7.00 |  |
| C[C@@H](CO)NC(=O)c1cc(-c2ccc(-c3ccccc3)nc2)nn(-c2cnn(C)c2)c1=O [Compound 185] | > 7.00 | > 7.00 |  |
| C[C@@H](CO)NC(=O)c1cc(-c2cnc(-c3ccc(F)cc3)nc2)nn(-c2cnn(C)c2)c1=O [Compound 186] | > 7.00 | > 7.00 |  |
| C[C@@H](CO)NC(=O)c1cc(-c2ccc(-c3cccc(F)c3)nc2)nn(-c2cnn(C)c2)c1=O [Compound 191] | > 7.00 | > 7.00 |  |
| C[C@@H](CO)NC(=O)c1cc(-c2ccc(-c3ccccc3F)nc2)nn(-c2cnn(C)c2)c1=O [Compound 192] | > 7.00 | > 7.00 |  |
| C[C@@H](CO)NC(=O)c1cc(-c2cnc(-c3cccc(F)c3)nc2)nn(-c2cnn(C)c2)c1=O [Compound 193] | > 7.00 | > 7.00 |  |
| C[C@@H](CO)NC(=O)c1cc(-c2cnc(-c3ccccc3F)nc2)nn(-c2cnn(C)c2)c1=O [Compound 194] | > 7.00 | > 7.00 |  |
| C[C@@H](CO)NC(=O)c1cc(-c2ccc(-c3ccc(F)nc3)nc2)nn(-c2cnn(C)c2)c1=O [Compound 195] | > 7.00 | > 7.00 |  |
| C[C@@H](CO)NC(=O)c1cc(-c2ccc(C3CCOCC3)cc2)nn(-c2cnn(C)c2)c1=O [Compound 197] | 6.40 to 7.00 | 6.40 to 7.00 |  |
| C[C@@H](CO)NC(=O)c1cc(-c2ccc(C3CCCCC3)cc2)nn(-c2cnn(C)c2)c1=O [Compound 198] | > 7.00 | > 7.00 |  |
| C[C@@H](CO)NC(=O)c1cc(-c2cnc(-c3ccc(F)cc3)nc2)nc(-c2cnn(C)c2)n1 [Compound 199] | > 7.00 | > 7.00 |  |
| C[C@@H](CO)n1cnc2c(-c3cnn(C)c3)nc(-c3cnc(-c4ccc(F)cc4)nc3)cc2c1=O [Compound 200] | > 7.00 | > 7.00 |  |
| CCc1ccc(-c2cc(C(=O)N[C@@H](C)CO)c(=O)n(-c3cnn(C)c3)n2)cc1 [Compound 201] | > 7.00 | > 7.00 |  |
| CC(C)c1ccc(-c2cc(C(=O)N[C@@H](C)CO)c(=O)n(-c3cnn(C)c3)n2)cc1 [Compound 202] | > 7.00 | > 7.00 |  |
| C[C@@H](CO)NC(=O)c1cc(-c2ccc(C(C)(C)C)cc2)nn(-c2cnn(C)c2)c1=O [Compound 203] | > 7.00 | > 7.00 |  |
| CCc1ccc(-c2cc(C(=O)N[C@@H](C)COC)c(=O)n(-c3cnn(C)c3)n2)cc1 [Compound 204] | 6.40 to 7.00 | > 7.00 |  |
| COC[C@H](C)NC(=O)c1cc(-c2ccc(C(C)C)cc2)nn(-c2cnn(C)c2)c1=O [Compound 206] | > 7.00 | > 7.00 |  |
| C[C@@H](CO)NC(=O)c1cc(N2CCC(c3ccc(F)cc3)CC2)nn(-c2cnn(C)c2)c1=O [Compound 207] | < 6.40 | 6.40 to 7.00 |  |
| C[C@@H](CO)NC(=O)c1cc(N2CCN(c3ccc(F)cc3)CC2)nn(-c2cnn(C)c2)c1=O [Compound 208] | > 7.00 | > 7.00 |  |
| C[C@@H](CO)NC(=O)c1cc(-c2ccc(-c3ccc(F)cc3)nc2)nn(-c2cnn(C)c2)c1=O [example 184] | > 7.00 | > 7.00 | significantly reduced tumor volume |

From patent US20240351988A1, “ARYL HYDROCARBON RECEPTOR MODULATORS AND THEIR USE IN THE TREATMENT OF DISEASES AND DISORDERS” (Allianthera (Suzhou) Biopharmaceutical Co., Ltd., priority 2021, published 2024)
